Peptide text beside a SMILES is read from it.
Test: Effect of plasma handling (thawed, about 2 hours at room temperature, re-frozen: RT2h-FT1) on NI of Ng peptides
Assay type: in vitro ADME, human
Conditions: FIG. 1
Procedure: Among the 161 samples, samples obtained by thawing cryopreserved samples, placing the samples at room temperature for about 2 hours, and then re-freezing the samples are also included. In order to investigate the influence of this process on the measured value of the Ng peptide, the Ng peptide to be analyzed was evaluated using a part of the sample. In the measurement of the sample that was thawed, left at room temperature for about 2 hours, and then re-frozen (sample under the RT2h-FT1 condition), the above [purification] [mass spectrometry] was performed except that SIL-Ng50-78 was used as the internal standard peptide, and the internal standard peptide was diluted with the first buffer. The above [purification] [mass spectrometry] was also performed on the samples not subjected to the RT2h-FT1 process (samples under control conditions). For these, data processing was performed using data obtained by simultaneously measuring SIL-Ng50-78 and SIL-Ng45-75 and SIL-Ng24-75 such that the measured value of the RT2h-FT1 condition normalized with SIL-Ng50-78 was NI normalized with SIL-Ng45-75 and SIL-Ng24-75.
From this, it can be seen that the decomposition of the Ng peptide proceeds by the time for which the plasma is stored in a thawed state and/or freeze-thawing. […]

SMILES | change of NI under the RT2h-FT1 condition compared with the Control condition (decomposition in plasma)
CC(C)[C@H](NC(=O)CNC(=O)[C@H](C)NC(=O)CNC(=O)CNC(=O)[C@@H]1CCCN1C(=O)CNC(=O)CNC(=O)[C@@H]1CCCN1C(=O)CNC(=O)[C@@H]1CCCN1C(=O)CNC(=O)[C@H](CCCCN)NC(=O)[C@H](CCCNC(=N)N)NC(=O)CNC(=O)[C@H](CCCNC(=N)N)NC(=O)[C@@H](N)CCC(=O)O)C(=O)N[C@@H](C)C(=O)N[C@@H](CCCNC(=N)N)C(=O)NCC(=O)NCC(=O)N[C@@H](C)C(=O)NCC(=O)NCC(=O)NCC(=O)N1CCC[C@H]1C(=O)O [Ng50-75] (H-ERGRKGPGPGGPGGAGVARGGAGGGP-OH) | smaller decrease width due to decomposition than the other Ng peptides
CC[C@H](C)[C@H](NC(=O)[C@@H](N)CCCCN)C(=O)N[C@@H](CCCCN)C(=O)N[C@@H](CO)C(=O)NCC(=O)N[C@@H](CCC(=O)O)C(=O)N[C@@H](CCCNC(=N)N)C(=O)NCC(=O)N[C@@H](CCCNC(=N)N)C(=O)N[C@@H](CCCCN)C(=O)NCC(=O)N1CCC[C@H]1C(=O)NCC(=O)N1CCC[C@H]1C(=O)NCC(=O)NCC(=O)N1CCC[C@H]1C(=O)NCC(=O)NCC(=O)N[C@@H](C)C(=O)NCC(=O)N[C@H](C(=O)N[C@@H](C)C(=O)N[C@@H](CCCNC(=N)N)C(=O)NCC(=O)NCC(=O)N[C@@H](C)C(=O)NCC(=O)NCC(=O)NCC(=O)N1CCC[C@H]1C(=O)O)C(C)C [Ng45-75] (H-KIKSGERGRKGPGPGGPGGAGVARGGAGGGP-OH) | smaller decrease width due to decomposition than the other Ng peptides

— patent EP4679096A1, “BIOMARKERS AND METHOD FOR ESTIMATING BRAIN NEURODEGENERATIVE CONDITION” (SHIMADZU CORPORATION, priority 2023, dated 2024)
